The test addresses BRAF^V600E protein (Homo sapiens, UniProt P15056, V600E). In words: HiBiT cellular BRAF V600E degradation assay. In kind it is cell-based. To be noted: 24 h incubation; for DC50: A375.10 cells (HiBiT tag knocked in at N-terminal of BRAF V600E), concentration at which 50% of total cellular BRAF V600E is degraded; for Emax: A375.10 cells, Emax = amount of residual protein remaining in the cell after compound treatment, read-out: HiBit 24 h Emax. For orientation: The HiBiT peptide binds its large partner to form an active luciferase.

A word on the DC50: it is the concentration giving 50% degradation. The Emax is the greatest response seen or fitted, relative to the assay's reference.

Chain of BRAF^V600E protein (P15056 whole entry V600E): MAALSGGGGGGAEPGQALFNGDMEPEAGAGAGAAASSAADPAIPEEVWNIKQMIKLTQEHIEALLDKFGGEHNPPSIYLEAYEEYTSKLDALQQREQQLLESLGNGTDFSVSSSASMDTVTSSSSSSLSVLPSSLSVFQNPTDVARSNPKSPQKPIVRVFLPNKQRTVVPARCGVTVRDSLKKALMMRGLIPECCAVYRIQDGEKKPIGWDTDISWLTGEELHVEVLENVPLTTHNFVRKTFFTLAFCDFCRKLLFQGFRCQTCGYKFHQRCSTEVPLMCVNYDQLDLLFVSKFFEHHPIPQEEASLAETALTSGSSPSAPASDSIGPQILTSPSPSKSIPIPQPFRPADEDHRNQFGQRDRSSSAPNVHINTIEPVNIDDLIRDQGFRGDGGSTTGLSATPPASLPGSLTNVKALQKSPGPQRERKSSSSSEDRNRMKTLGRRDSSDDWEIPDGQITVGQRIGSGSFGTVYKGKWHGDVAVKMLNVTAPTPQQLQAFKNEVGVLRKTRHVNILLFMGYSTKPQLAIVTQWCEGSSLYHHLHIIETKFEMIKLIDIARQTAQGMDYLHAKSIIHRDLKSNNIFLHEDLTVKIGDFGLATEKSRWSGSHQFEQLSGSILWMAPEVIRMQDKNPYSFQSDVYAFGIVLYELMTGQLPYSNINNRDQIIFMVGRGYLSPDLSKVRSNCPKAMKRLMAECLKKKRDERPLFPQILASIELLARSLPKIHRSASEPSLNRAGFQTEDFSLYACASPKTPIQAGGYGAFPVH

On to `CCN(C)S(=O)(=O)Nc1ccc(F)c(C(=O)c2c[nH]c3ncc(C#Cc4ccc(C(=O)NCCN5CCC(c6ccc(NC7CCC(=O)NC7=O)cc6)CC5)cc4)cc23)c1F` (centres unmarked) [Example A86, N-[2-[4-[4-[(2,6-Dioxopiperidin-3-yl)amino]phenyl]piperidin-1-yl]ethyl]-4-[2-[3-[3-[[ethyl(methyl)sulfamoyl]amino]-2,6-difluorobenzoyl]-1H-pyrrolo[2,3-b]pyridin-5-yl]ethynyl]benzamide], for which the DC50 was determined as 32 nM and the maximum response (Emax) was found to be 23%.

As for `O=C1CCC(Nc2ccc(C3CCN(C(=O)NC4CCN(Cc5ccc(-c6cnc7[nH]cc(C(=O)c8c(F)ccc(NS(=O)(=O)N9CCCC9)c8F)c7c6)cc5)CC4)CC3)cc2)C(=O)N1` (centres unmarked) [Example A53, N-[1-[[4-[3-[2,6-Difluoro-3-(pyrrolidin-1-ylsulfonylamino)benzoyl]-1H-pyrrolo[2,3-b]pyridin-5-yl]phenyl]methyl]piperidin-4-yl]-4-[4-[(2,6-dioxopiperidin-3-yl)amino]phenyl]piperidine-1-carboxamide;formic acid], it took 27 nM to reach half-maximal degradation (DC50) and the maximal response (Emax) was 22%.

For `CCN(C)S(=O)(=O)Nc1ccc(F)c(C(=O)c2c[nH]c3ncc(-c4cnc(N5CCN(C(=O)CC6(O)CCN(c7ccc(N8CCC(=O)NC8=O)cc7Cl)CC6)CC5)nc4)cc23)c1F` [Example 213, 5-[2-[4-[2-[1-[2-chloro-4-(2,4-dioxohexahydropyrimidin-1-yl)phenyl]-4-hydroxy-4-piperidyl]acetyl]piperazin-1-yl]pyrimidin-5-yl]-3-[3-[[ethyl(methyl)sulfamoyl]amino]-2,6-difluoro-benzoyl]-1H-pyrrolo[2,3-b]pyridine], the DC50 came out at 0.42 nM and the Emax amounted to 6.06%.

For `O=C1CCC(Nc2ccc(C3CCN(CC(=O)N4CCN(c5ccc(-c6cnc7[nH]cc(C(=O)c8c(F)ccc(NS(=O)(=O)N9CCCC9)c8F)c7c6)cc5)CC4)CC3)cc2)C(=O)N1` (centres unmarked) [Example A48, N-[3-[5-[4-[4-[2-[4-[4-[(2,6-Dioxopiperidin-3-yl)amino]phenyl]piperidin-1-yl]acetyl]piperazin-1-yl]phenyl]-1H-pyrrolo[2,3-b]pyridine-3-carbonyl]-2,4-difluorophenyl]pyrrolidine-1-sulfonamide], it took 5 nM to reach half-maximal degradation (DC50) and the Emax amounted to 12%.

`O=C1CCC(Nc2ccc(N3CCN(CC(=O)N4CCN(c5ccc(-c6cnc7[nH]cc(C(=O)c8c(F)ccc(NS(=O)(=O)N9CCCC9)c8F)c7c6)cc5)CC4)CC3)cc2)C(=O)N1` (centres unmarked) [Example A51, N-[3-[5-[4-[4-[2-[4-[4-[(2,6-Dioxopiperidin-3-yl)amino]phenyl]piperazin-1-yl]acetyl]piperazin-1-yl]phenyl]-1H-pyrrolo[2,3-b]pyridine-3-carbonyl]-2,4-difluorophenyl]pyrrolidine-1-sulfonamide]: the DC50 worked out at 4 nM and the Emax amounted to 14%.

As for `CCN(C)S(=O)(=O)Nc1ccc(F)c(C(=O)c2c[nH]c3ncc(-c4ccc(N5CCN(C(=O)CC6(O)CCN(c7cc(F)c(N8CCC(=O)NC8=O)cc7F)CC6)CC5)nc4)cc23)c1F` [Example 220, 5-[6-[4-[2-[1-[4-(2,4-dioxohexahydropyrimidin-1-yl)-2,5-difluoro-phenyl]-4-hydroxy-4-piperidyl]acetyl]piperazin-1-yl]-3-pyridyl]-3-[3-[[ethyl(methyl)sulfamoyl]amino]-2,6-difluoro-benzoyl]-1H-pyrrolo[2,3-b]pyridine], the DC50 stood at 1.45 nM and the Emax amounted to 7.62%.

For `CCN(C)S(=O)(=O)Nc1ccc(F)c(C(=O)c2c[nH]c3ncc(-c4cnc(N5CCN(C(=O)CC6(O)CCN(c7ccc(N8CCC(=O)NC8=O)cc7F)CC6)CC5)nc4)cc23)c1F` [Example 167, 5-[2-[4-[2-[1-[4-(2,4-dioxohexahydropyrimidin-1-yl)-2-fluoro-phenyl]-4-hydroxy-4-piperidyl]acetyl]piperazin-1-yl]pyrimidin-5-yl]-3-[3-[[ethyl(methyl)sulfamoyl]amino]-2,6-difluoro-benzoyl]-1H-pyrrolo[2,3-b]pyridine], the DC50 turned out to be 7.05 nM and the Emax was 9.37%.
